Data as given in ChEMBL document CHEMBL5370533 (Eur J Med Chem, 2023).
pIC50, pKd: −log10 of the molar value.

Assays:
[1] = target: Receptor-type tyrosine-protein kinase FLT3 (Homo sapiens, UniProt P36888, N841I); assay: Binding affinity to FLT3 N841I mutant (unknown origin)
[2] = target: Receptor-type tyrosine-protein kinase FLT3 (Homo sapiens, UniProt P36888, D835H); assay: Binding affinity to FLT3 D835H mutant (unknown origin)
[3] = Oral bioavailability in rat at 10 mg/kg; type: ADME, organism-based; conditions: in vivo
BaF3 [4] = assay: cells; type: functional, cell-based; conditions: Mus musculus, BaF3, 72 h
Description: Antiproliferative activity against mouse BaF3 cells harboring FLT3 ITD/N676D mutant assessed as inhibition of cell growth incubated for 72 hrs

HL-60 = assay: Antiproliferative activity against human HL-60 cells expressing low level wild type FLT3 assessed as inhibition of cell growth; type: functional, cell-based
[5] = Clearance in human liver microsomes measured per mg protein by LC-MS/MS analysis; type: ADME, Microsome; conditions: read-out: CLH
[6] = target: Receptor-type tyrosine-protein kinase FLT3 (Homo sapiens) (UniProt P36888); assay: Inhibition of FLT3 in human MV4-11 cells assessed as decrease in phosphorylated STAT5 level incubated for 24 hrs by immunoblot analysis; type: cell-based; conditions: dose 20-600 nM
[7] = target: Receptor-type tyrosine-protein kinase FLT3 (Homo sapiens, UniProt P36888, D835V); assay: Binding affinity to FLT3 D835V mutant (unknown origin)
[8] = Cmax in rat at 10 mg/kg, po; type: ADME, organism-based; parameters: dose 10 mg/kg, route po; conditions: in vivo
SR [9] = assay: Antiproliferative activity against human SR cells not addicted to FLT3 ITD mutant assessed as inhibition of cell growth; type: functional
BaF3 [10] = assay: cells; type: functional, cell-based; conditions: Mus musculus, BaF3, 72 h; remark: listed apart in the source
Description: Antiproliferative activity against mouse BaF3 cells harboring FLT3 ITD/D835V mutant assessed as inhibition of cell growth incubated for 72 hrs

[11] = AUC(0 to t) in rat at 10 mg/kg, po; type: ADME, organism-based; parameters: dose 10 mg/kg, route po; conditions: in vivo
[12] = target: CDK6/cyclin D1 (Homo sapiens) (UniProt P24385+Q00534); assay: Inhibition of CDK6/Cyclin D1 (unknown origin); type: protein-complex assay; conditions: concentration not given here
[13] = target: Receptor-type tyrosine-protein kinase FLT3 (Homo sapiens) (UniProt P36888); assay: Inhibition of FLT3 (unknown origin); conditions: concentration not given here
MV4-11 [14] = assay: Antiproliferative activity against human MV4-11 cells harboring FLT3 ITD mutant assessed as inhibition of cell growth incubated for 72 hrs by CellTiter-Glo luminescent assay; type: functional, cell-based; conditions: MV4-11, 72 h
[15] = target: T1, Receptor-type tyrosine-protein kinase FLT3 (Homo sapiens, UniProt P36888); assay: Inhibition of human FLT3 using EAIYAAPFAKKK and [gamma-33P]-ATP as substrate pretreated for 20 mins followed by [gamma-33P]-ATP addition and measured after 120 mins in presence of 10 uM ATP by radiometric Hot-SpotSM Kinase assay
T1 sequence (P36888 whole entry): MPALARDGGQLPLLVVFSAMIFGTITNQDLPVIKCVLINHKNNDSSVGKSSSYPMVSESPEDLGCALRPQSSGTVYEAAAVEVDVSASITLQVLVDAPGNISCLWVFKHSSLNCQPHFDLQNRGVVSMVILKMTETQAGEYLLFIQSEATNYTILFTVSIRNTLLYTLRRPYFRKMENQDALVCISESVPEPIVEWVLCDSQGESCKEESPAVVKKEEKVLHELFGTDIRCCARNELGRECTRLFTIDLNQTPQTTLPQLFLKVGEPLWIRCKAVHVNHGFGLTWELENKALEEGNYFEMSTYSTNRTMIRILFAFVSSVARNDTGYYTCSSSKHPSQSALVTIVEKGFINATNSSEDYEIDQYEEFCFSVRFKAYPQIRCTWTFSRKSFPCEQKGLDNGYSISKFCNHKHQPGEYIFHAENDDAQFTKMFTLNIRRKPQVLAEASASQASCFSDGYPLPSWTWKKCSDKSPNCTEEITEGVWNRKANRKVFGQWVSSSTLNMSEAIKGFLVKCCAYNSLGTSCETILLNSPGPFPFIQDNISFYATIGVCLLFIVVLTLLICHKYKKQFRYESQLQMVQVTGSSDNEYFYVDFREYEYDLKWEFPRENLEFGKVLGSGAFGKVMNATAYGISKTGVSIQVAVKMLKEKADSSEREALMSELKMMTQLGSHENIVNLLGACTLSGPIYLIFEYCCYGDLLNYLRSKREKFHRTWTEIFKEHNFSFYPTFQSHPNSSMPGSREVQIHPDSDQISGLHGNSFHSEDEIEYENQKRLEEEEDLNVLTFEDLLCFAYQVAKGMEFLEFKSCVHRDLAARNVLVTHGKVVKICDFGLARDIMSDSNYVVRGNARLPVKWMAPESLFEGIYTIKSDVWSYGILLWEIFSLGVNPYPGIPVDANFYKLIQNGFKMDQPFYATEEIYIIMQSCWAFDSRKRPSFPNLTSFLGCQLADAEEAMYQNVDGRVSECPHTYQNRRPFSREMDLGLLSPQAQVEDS

[16] = target: Receptor-type tyrosine-protein kinase FLT3 (Homo sapiens, UniProt P36888, ITD); assay: Binding affinity to FLT3 ITD mutant (unknown origin)
[17] = Half life in human liver microsomes by LC-MS/MS analysis; type: ADME, Microsome
SR [18] = assay: Antiproliferative activity against human SR cells assessed as inhibition of cell growth; type: functional
[19] = Half life in rat at 10 mg/kg, po; type: ADME, organism-based; conditions: in vivo
[20] = Cytotoxicity against human PBMC cells assessed as inhibition of cell growth; type: toxicity, cell-based
[21] = target: Receptor-type tyrosine-protein kinase FLT3 (Homo sapiens, UniProt P36888, K663Q); assay: Binding affinity to FLT3 K663Q mutant (unknown origin)
[22] = Cytotoxicity against mouse BaF3 cells assessed as inhibition of cell growth incubated for 72 hrs; type: toxicity, cell-based
MV4-11 [23] = assay: animal or person; type: functional, Homo sapiens; conditions: Mus musculus, MV4-11, 336 h, route po, time 2 weeks
Description: Antitumor activity against human MV4-11 cells xenografted in nu/nu mouse assessed as inhibition of tumor growth at 50 mg/kg, po qd for 2 weeks by vernier caliper analysis

[24] = AUC (0 to t) in Beagle dog at […], po; type: ADME, organism-based, Canis lupus familiaris; parameters: dose 1.5 mg/kg, route po; conditions: in vivo
[25] = target: CDK7/Cyclin H/MNAT1 (Homo sapiens) (UniProt P51946+P50613+P51948); assay: Inhibition of CDK7/Cyclin H/MAT1 (unknown origin); type: protein-complex assay; conditions: concentration not given here
[26] = Half life in Beagle dog at […], po; type: ADME, organism-based, Canis lupus familiaris; conditions: in vivo, dose 1.5 mg/kg
BaF3 [27] = assay: cells; type: functional, cell-based; conditions: Mus musculus, BaF3, 72 h; remark: listed apart in the source
Description: Antiproliferative activity against mouse BaF3 cells harboring FLT3 ITD mutant assessed as inhibition of cell growth incubated for 72 hrs

KM12 = assay: Antiproliferative activity against human KM12 cells assessed as inhibition of cell growth; type: functional
BaF3 [28] = assay: cells; type: functional, cell-based; conditions: Mus musculus, BaF3, 72 h; remark: listed apart in the source
Description: Antiproliferative activity against mouse BaF3 cells harboring FLT3 ITD/F691L mutant assessed as inhibition of cell growth incubated for 72 hrs

[29] = target: CDK4/Cyclin D3 (Homo sapiens) (UniProt P11802+P30281); assay: Inhibition of CDK4/Cyclin D3 (unknown origin); type: protein-complex assay; conditions: concentration not given here
[30] = target: Receptor-type tyrosine-protein kinase FLT3 (Homo sapiens, UniProt P36888, F691L/ITD); assay: Binding affinity to FLT3 ITD/F691L mutant (unknown origin)
[31] = Toxicity against nu/nu mouse xenografted with human MV4-11 cells assessed as decrease in body weight at 25 mg/kg, po qd for 2 weeks; type: organism-based; conditions: in vivo, 336 h
[32] = target: Receptor-type tyrosine-protein kinase FLT3 (Homo sapiens, UniProt P36888, D835Y); assay: Binding affinity to FLT3 D835Y mutant (unknown origin)

## O=C(Nc1ccc(N2CCNCC2)cc1)c1n[nH]cc1Nc1cc(Oc2ccccc2)ncn1
[1]
  pKd: 7.11
[2]
  pKd: 7.31
[3]
  bioavailability: 33.3%
BaF3 [4]
  pIC50: 7.27
HL-60
  pIC50: 6.01
[5]
  microsomal CLint: 7.4 µL/min/mg
[6]
  inhibition: Dose-Dependent Effect
[7]
  pKd: 8.81
[8]
  Cmax: 144 ng/mL
SR [9]
  GI50: 300 nM
BaF3 [10]
  pIC50: 8.05
[11]
  AUC(0-t): 1080 ng·h/mL
[12]
  inhibition: 68.8%
[13]
  inhibition: 99.6%
MV4-11 [14]
  pIC50: 7.82
[15]
  pIC50: 9.21
[16]
  pKd: 7.74
[17]
  half-life: 3.1 h
SR [18]
  GI50: < 1000 nM
[19]
  half-life: 3.5 h
[20]
  pIC50: 6.08
[21]
  pKd: 6.92
[22]
  IC50 at 72 h: 2920 nM
MV4-11 [23]
  inhibition in vivo at 50 mg/kg: 94%
[24]
  AUC(0-t): 762 ng·h/mL
[25]
  inhibition: 80.9%
[26]
  half-life: 11.1 h
BaF3 [27]
  pIC50: 7.41
KM12
  GI50: < 1000 nM
BaF3 [28]
  pIC50: 7.02
[29]
  inhibition: 79.2%
[30]
  pKd: 8.79
[31]
  Activity: Non-Toxic
[32]
  pKd: 8.15
